Reference: article PMC7206119, “RIP1 inhibition blocks inflammatory diseases but not tumor growth or metastases” (Cell Death and Differentiation, 2019)

Experiments:
Test in all cases: biochemical
Design in all cases: DiscoverX kinase panel, active-site competition binding (KINOMEscan type), percent of control at one concentration
Details in all cases: competition binding, percent of control
PDPK1 = PDPK1 (Homo sapiens, UniProt O15530)
Description: (§1) To investigate the potential therapeutic benefit of inhibiting RIP1, we developed GNE684 or (S)-N-((S)-7-methoxy-1-methyl-2-oxo-2,3,4,5-tetrahydro-1H-pyrido[3,4-b]azepin-3-yl)-5-phenyl-6,7-dihydro-5H-pyrrolo[1,2-b][1,2,4]triazole-2-carboxamide with cross-species potency against RIP1, exquisite kinase selectivity, and favorable pharmacological properties (Fig. 1a–h, S1, Tables S1 and S2, SI file 1). […] (Fig. 1b, S1, and Table S1). […] GNE684 inhibited human RIP1 potently in vitro, and mouse and rat RIP1 with slightly less potency (Fig. 1d). Accordingly, it inhibited TNF-induced necroptosis in human HT-29, mouse L929, or rat H9c2 cells (Fig. 1e). The cellular potency of GNE684 was confirmed in a human whole blood assay using TBZ (TNF, IAP antagonist BV6, and pan-caspase inhibitor zVAD) or LZ (LPS plus zVAD) to trigger necroptosis and the release of IL-1α and IL-1β (Fig. 1f).

PAK1 = PAK1 (Homo sapiens, UniProt Q13153)
Description: as §1

MAP3K2 = MAP3K2 (Homo sapiens, UniProt Q9Y2U5)
Description: as §1

[1] = biological target: T1, TYK2(JH2domain-pseudokinase) (Homo sapiens, UniProt P29597)
T1 construct: JH2domain-pseudokinase
Description: as §1

PKN1 = PKN1 (Homo sapiens, UniProt Q16512)
Description: as §1

TYRO3 = TYRO3 (Homo sapiens, UniProt Q06418)
Description: as §1

LRRK2(G2019S) = LRRK2(G2019S) (Homo sapiens, UniProt Q5S007, G2019S)
Description: as §1

PIM2 = PIM2 (Homo sapiens, UniProt Q9P1W9)
Description: as §1

CHEK1 = CHEK1 (Homo sapiens, UniProt O14757)
Description: as §1

VRK2 = VRK2 (Homo sapiens, UniProt Q86Y07)
Description: as §1

PRKD2 = PRKD2 (Homo sapiens, UniProt Q9BZL6)
Description: as §1

SLK = SLK (Homo sapiens, UniProt Q9H2G2)
Description: as §1

CAMK2B = CAMK2B (Homo sapiens, UniProt Q13554)
Description: as §1

ERK5 = biological target: T2, ERK5 (Homo sapiens, UniProt Q13164)
T2 construct: gene MAPK7
Description: as §1

YSK1 = biological target: T3, YSK1 (Homo sapiens, UniProt O00506)
T3 construct: gene STK25
Description: as §1

FLT3(ITD,F691L) = FLT3(ITD,F691L) (Homo sapiens, UniProt P36888, F691L/ITD)
Description: as §1

YES = biological target: T4, YES (Homo sapiens, UniProt P07947)
T4 construct: gene YES1
Description: as §1

AURKC = AURKC (Homo sapiens, UniProt Q9UQB9)
Description: as §1

ICK = biological target: T5, ICK (Homo sapiens, UniProt Q9UPZ9)
T5 construct: gene CILK1
Description: as §1

TAOK1 = TAOK1 (Homo sapiens, UniProt Q7L7X3)
Description: as §1

SRPK1 = SRPK1 (Homo sapiens, UniProt Q96SB4)
Description: as §1

T4 sequence (P07947 whole entry): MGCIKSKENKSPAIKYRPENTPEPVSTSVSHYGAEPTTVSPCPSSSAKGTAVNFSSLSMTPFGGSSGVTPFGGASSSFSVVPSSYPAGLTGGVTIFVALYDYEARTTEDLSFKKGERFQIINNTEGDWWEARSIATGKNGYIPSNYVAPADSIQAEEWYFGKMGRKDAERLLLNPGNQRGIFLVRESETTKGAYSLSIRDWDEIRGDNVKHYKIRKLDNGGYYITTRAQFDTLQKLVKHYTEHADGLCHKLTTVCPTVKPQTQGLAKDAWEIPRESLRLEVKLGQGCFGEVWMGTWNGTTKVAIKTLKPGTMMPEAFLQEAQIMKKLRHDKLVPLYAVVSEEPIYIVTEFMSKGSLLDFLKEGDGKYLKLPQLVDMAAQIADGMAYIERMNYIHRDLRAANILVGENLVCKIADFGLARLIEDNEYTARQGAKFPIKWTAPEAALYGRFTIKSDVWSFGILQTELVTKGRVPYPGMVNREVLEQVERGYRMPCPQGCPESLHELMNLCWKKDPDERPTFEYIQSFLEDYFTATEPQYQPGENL
Sequence of AURKC (Q9UQB9 whole entry): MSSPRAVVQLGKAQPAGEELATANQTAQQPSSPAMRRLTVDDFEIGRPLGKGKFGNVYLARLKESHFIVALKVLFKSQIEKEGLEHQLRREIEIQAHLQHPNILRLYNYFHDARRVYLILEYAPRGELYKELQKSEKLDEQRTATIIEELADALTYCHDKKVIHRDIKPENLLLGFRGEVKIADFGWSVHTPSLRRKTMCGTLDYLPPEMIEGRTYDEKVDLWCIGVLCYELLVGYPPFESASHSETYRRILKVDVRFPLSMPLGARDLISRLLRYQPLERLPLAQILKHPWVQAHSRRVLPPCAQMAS
Sequence of PIM2 (Q9P1W9 whole entry): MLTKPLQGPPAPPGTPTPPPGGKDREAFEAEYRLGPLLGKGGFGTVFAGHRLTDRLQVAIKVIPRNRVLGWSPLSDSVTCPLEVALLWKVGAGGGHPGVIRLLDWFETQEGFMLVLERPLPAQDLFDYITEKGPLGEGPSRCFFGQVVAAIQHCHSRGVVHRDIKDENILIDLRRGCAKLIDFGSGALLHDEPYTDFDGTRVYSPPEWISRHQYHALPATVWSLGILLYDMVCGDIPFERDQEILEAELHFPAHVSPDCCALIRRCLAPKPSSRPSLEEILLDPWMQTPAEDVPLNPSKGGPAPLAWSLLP
Sequence of FLT3(ITD,F691L) (P36888 564-993 F691L): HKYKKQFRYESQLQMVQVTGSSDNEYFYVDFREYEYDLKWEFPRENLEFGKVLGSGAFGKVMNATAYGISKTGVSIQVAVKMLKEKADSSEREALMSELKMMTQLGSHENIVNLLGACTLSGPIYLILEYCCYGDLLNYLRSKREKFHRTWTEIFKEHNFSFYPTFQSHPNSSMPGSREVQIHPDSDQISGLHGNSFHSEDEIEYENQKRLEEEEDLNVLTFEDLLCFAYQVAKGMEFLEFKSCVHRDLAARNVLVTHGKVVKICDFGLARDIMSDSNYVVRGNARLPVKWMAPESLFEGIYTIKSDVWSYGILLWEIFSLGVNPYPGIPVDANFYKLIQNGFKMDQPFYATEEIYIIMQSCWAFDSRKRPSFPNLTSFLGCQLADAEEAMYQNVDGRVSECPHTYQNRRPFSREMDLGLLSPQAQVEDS
Sequence of MAP3K2 (Q9Y2U5 whole entry): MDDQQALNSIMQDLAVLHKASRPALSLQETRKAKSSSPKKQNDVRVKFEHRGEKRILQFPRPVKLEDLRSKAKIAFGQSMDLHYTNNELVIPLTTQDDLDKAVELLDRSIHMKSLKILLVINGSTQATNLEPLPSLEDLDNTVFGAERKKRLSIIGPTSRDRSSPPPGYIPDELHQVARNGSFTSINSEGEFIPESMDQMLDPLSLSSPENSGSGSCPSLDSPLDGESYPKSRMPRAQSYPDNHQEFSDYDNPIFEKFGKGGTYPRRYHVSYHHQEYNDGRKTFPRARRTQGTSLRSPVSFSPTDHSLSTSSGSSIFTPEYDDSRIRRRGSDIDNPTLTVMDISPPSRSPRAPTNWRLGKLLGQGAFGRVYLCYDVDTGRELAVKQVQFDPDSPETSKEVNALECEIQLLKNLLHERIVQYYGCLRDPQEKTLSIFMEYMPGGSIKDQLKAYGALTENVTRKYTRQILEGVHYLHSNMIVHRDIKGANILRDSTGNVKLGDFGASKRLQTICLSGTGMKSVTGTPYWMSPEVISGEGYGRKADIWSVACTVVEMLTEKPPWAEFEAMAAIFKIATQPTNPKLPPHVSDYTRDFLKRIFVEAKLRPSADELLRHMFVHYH
Sequence of TAOK1 (Q7L7X3 whole entry): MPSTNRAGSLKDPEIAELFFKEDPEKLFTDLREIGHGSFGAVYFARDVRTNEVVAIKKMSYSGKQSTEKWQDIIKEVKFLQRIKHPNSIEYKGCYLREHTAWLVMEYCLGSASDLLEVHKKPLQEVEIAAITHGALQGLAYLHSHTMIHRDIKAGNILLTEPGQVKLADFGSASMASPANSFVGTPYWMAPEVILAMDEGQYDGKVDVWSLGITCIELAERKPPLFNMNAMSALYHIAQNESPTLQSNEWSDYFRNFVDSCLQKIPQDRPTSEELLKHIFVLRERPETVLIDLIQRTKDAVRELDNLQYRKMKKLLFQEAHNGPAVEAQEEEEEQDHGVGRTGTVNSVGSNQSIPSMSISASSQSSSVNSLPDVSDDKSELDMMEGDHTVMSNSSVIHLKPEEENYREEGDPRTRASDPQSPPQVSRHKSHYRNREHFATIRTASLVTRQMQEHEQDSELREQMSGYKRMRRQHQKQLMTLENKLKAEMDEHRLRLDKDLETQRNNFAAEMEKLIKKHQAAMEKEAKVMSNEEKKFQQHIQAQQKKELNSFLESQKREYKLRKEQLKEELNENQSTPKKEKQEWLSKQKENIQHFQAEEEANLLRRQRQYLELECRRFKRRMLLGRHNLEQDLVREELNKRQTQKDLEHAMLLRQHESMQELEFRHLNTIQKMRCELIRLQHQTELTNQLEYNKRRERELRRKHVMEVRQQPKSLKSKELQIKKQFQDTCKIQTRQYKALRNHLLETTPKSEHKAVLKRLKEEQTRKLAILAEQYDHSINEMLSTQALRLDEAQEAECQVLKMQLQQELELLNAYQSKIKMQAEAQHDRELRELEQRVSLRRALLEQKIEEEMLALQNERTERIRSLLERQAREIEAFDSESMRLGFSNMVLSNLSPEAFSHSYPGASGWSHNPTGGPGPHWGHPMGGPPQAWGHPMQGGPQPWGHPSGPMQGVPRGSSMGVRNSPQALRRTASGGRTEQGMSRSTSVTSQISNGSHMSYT
Sequence of CAMK2B (Q13554 whole entry): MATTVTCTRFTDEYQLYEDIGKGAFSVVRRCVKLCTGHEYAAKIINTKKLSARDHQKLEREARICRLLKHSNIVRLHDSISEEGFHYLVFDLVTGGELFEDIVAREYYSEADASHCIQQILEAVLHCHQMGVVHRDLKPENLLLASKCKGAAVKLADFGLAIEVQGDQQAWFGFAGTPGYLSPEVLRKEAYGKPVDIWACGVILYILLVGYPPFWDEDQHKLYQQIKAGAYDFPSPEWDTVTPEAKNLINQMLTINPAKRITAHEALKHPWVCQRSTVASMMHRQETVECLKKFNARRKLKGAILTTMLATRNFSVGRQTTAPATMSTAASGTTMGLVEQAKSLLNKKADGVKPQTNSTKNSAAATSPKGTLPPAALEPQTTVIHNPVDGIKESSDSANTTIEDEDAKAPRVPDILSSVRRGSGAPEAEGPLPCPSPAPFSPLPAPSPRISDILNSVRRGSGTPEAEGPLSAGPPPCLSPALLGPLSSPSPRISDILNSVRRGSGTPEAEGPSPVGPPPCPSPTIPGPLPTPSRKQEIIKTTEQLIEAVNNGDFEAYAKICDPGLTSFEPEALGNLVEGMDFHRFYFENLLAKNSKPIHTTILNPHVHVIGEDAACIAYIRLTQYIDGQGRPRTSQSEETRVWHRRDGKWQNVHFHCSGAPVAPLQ
Sequence of PRKD2 (Q9BZL6 whole entry): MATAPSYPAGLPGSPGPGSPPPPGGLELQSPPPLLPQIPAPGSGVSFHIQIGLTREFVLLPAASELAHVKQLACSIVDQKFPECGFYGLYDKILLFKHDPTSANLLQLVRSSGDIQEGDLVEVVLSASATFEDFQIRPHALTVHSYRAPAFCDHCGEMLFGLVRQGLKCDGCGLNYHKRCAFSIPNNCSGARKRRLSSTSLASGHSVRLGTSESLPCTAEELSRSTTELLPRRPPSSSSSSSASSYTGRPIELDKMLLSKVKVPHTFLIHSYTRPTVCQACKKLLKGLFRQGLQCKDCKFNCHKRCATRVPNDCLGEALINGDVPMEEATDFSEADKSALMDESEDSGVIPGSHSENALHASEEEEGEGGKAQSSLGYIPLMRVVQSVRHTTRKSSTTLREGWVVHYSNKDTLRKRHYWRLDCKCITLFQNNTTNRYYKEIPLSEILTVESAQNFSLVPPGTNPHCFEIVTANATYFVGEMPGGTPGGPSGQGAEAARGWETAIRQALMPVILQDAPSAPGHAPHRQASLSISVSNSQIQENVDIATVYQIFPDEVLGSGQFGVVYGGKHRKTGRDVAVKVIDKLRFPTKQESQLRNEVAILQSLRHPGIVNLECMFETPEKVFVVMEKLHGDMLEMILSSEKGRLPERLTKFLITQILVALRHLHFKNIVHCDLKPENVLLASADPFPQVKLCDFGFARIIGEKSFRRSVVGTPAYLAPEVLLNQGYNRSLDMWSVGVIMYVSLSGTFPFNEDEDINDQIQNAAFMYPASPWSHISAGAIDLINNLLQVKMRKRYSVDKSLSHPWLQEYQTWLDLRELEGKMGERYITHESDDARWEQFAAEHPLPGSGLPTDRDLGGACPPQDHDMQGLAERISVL

## COc1cc2c(cn1)N(C)C(=O)[C@@H](NC(=O)c1nc3n(n1)[C@H](c1ccccc1)CC3)CC2 [GNE684, (S)-N-((S)-7-methoxy-1-methyl-2-oxo-2,3,4,5-tetrahydro-1H-pyrido[3,4-b]azepin-3-yl)-5-phenyl-6,7-dihydro-5H-pyrrolo[1,2-b][1,2,4]triazole-2-carboxamide]
PDPK1
  remaining binding at 10 µM: 91%
PAK1
  remaining binding at 10 µM: 94%
MAP3K2
  remaining binding at 10 µM: 76%
[1]
  remaining binding at 10 µM: 100%
PKN1
  remaining binding at 10 µM: 94%
TYRO3
  remaining binding at 10 µM: 97%
LRRK2(G2019S)
  remaining binding at 10 µM: 97%
PIM2
  remaining binding at 10 µM: 71%
CHEK1
  remaining binding at 10 µM: 100%
VRK2
  remaining binding at 10 µM: 85%
PRKD2
  remaining binding at 10 µM: 100%
SLK
  remaining binding at 10 µM: 100%
CAMK2B
  remaining binding at 10 µM: 76%
ERK5
  remaining binding at 10 µM: 85%
YSK1
  remaining binding at 10 µM: 90%
FLT3(ITD,F691L)
  remaining binding at 10 µM: 98%
YES
  remaining binding at 10 µM: 95%
AURKC
  remaining binding at 10 µM: 93%
ICK
  remaining binding at 10 µM: 93%
TAOK1
  remaining binding at 10 µM: 100%
SRPK1
  remaining binding at 10 µM: 93%
